Measurements published in patent US20050215562A1, “Methods for treating protein aggregation disorders” (priority 2003, published 2005).

Key:
NAC peptide [1] = target: T1, NAC peptide (Homo sapiens, UniProt P37840); test: Binding of compounds to NAC peptide by electrospray mass spectrometry; settings: area of bound NAC-compound complex peaks divided by area of unbound NAC peaks; 5:1 compound:NAC, pH 7.4, 6.6% EtOH
T1 construct: a 35 amino acid peptide corresponding to residues 61 to 95 of the α-synuclein protein; made in house; host or cells: chemical solid-phase peptide synthesis (Fmoc), not expressed
Description: The ability of the compounds of the present invention to bind to NAC peptide in aqueous solution was evaluated. The binding ability correlates to the intensities of the peptide-compound complex peaks observed by the Electrospray Mass Spectrum. Millipore distilled deionized water was used to prepare all aqueous solutions. For pH determination a Beckman (Φ36 pH meter fitted with a Corning Semi-Micro Combination pH Electrode was employed.
The optimal cone voltage was determined to be 20V.
Mass spectrometry: Mass spectrometric analysis was performed using a Waters ZQ 4000 mass spectrometer equipped with a Waters 2795 sample manager. MassLynx 4.0 (earlier by MassLynx 3.5) was used for data processing and analysis. Test compounds were mixed with disaggregated peptides in aqueous media (6.6% EtOH) at a 5:1 ratio (20 μM NAC: 100 μM of test compound or 40 μM NAC : 200 μM of test compound). The pH of the mixture was adjusted to 7.4 (±0.2) using 0.1% NaOH (3-5 μL). Periodically, NAC peptide solution at 20 μM or 40 μM was also prepared in the same fashion and run as control. The spectra were obtained by introducing the solutions to the electrospray source by direct infusion using a syringe pump at a flow rate of 25 μl/min, and scanning from 100 to 2100 Da in the positive mode. The scan time was 0.9 sec per scan with an inter-scan delay of 0.1 sec and the run time was 5 min for each sample. All the mass spectra were sum of 300 scans. The desolvation and source temperature was 70° C. and the cone and capillary voltage were maintained at 20 V and 3.2 kV respectively.
The total area under the peaks for the bound NAC-compound complex divided by total area under the peaks for unbound NAC was determined for each compound tested.

NAC peptide [2] = target: T1, NAC peptide; test: Circular dichroism (CD) analysis of NAC peptide conformation after incubation with test compounds (fibrillogenesis assay); type: biochemical; parameters: key to CD Result (NAC conformation observed): Random Coil: signifies that the NAC in the sample was observed to have been maintained in its original random coil conformation indicating that the compound coincubated with NAC is active; signifies that the compound was not able to prevent the shift from random coil to β-sheet; β-sheet/β-turn: signifies that the compound was not able to prevent the shift from random coil to β-sheet; Transition: signifies that the NAC was observed to be in the process of converting from random coil to β-sheet indicating that the compound was able to slow down the conformational change and indicates activity; settings: for CD Result (NAC conformation observed): 125 μL of 40 μM NAC peptide with 125 μL of 200 μM test compound, pH 7.4, 37° C., conformations over repeated trials; for Activity (CD): active if it prevents the transition to β-turn/β-sheet in 50% or more of the trials; for Activity: active trials / trials: number of CD trials in which transition to β-turn/β-sheet was prevented, over trials run
Description: 2 mM Solutions were prepared in TBSA buffer (Tris 0.02 M, NaCl 0.15 M, NaN3 0.005%, pH 7.4) and stored at 4° C. For the assays, compounds were diluted to the desired concentrations in TBSAE buffer (Tris 0.02 M, NaCl 0.15 M, NaN3 0.005%, EDTA 100 μM, pH 7.4) and combined with the NAC peptides.
(§1) Fibrillogenesis assays were employed to identify test compounds that inhibit NAC's ability to assemble into fibers. Following removal of HFIP by evaporation under N2 gas, 20 μM NAC peptide is incubated in the assay buffer (0.02M Tris, 0.15 M NaCl, 0.005% NaN3, 100 uM EDTA) at 37° C. in a Perkin-Elmer HTS 7000 plus microplate reader with shaking for 1 minute every twenty minutes. The presence of fibers can be monitored by three different methods.
(§2) The following assays were set up in clear polystyrene 96 well microplates by combining 125 μL of 40 μM NAC peptide with 125 μL of 200 μM test compound in 0.02M Tris, 0.15 M NaCl, 0.005% NaN3, […]. The microplates were sealed with a plastic sheet and incubated at 37° C. in a Perkin-Elmer HTS 7000 microplate reader with shaking for 1 minute, every 20 minutes. • Thioflavin T Analysis. To perform this assay 5 μM Thioflavin T is added to the NAC assembly conditions described above. The fluorescence is measured at 430 excitation/485 emission every twenty minutes with a Perkin-Elmer HTS microplate reader for the duration of the assay. […] This assay allows for the identification of compounds that can inhibit this increase in fluorescence upon incubation. • Turbidity Analysis. Alternatively, NAC peptide that has been incubated with test compounds in the appropriate assembly conditions can be analyzed by reading the absorbance at 405 nm to follow the turbidity of the solution which is also an indication of the formation of aggregates. • Circular Dichroism (CD) Analysis. […] This assay allows for the identification of compounds that can prevent NAC from adopting a β-sheet/β-turn conformation upon incubation. • At the appropriate time point, during the incubation, the test solutions were transferred to 0.1-cm path length quartz cuvettes and scanned by CD spectroscopy between 190 and 260 nm, with a resolution of 0.1 nm and a bandwidth of 1 nm using a Jasco J-715 spectropolarimeter at 37° C. […] At the time point at which CD scans are performed a 3 μl aliquot is removed from the sample, spotted onto a Formvar grid and then negatively stained with 4% uranyl acetate. The grids were examined for the presence of fibrils and amorphous aggregates using a JOEL 2000 transmission electron microscope at a 25,000 × magnification. This assay can be used to confirm the absence of fibers in the presence of compounds which inhibit NAC assembly by ThT and CD. The final results were obtained by averaging 10 complete sectors.
For compounds that have been tested multiple times, a compound is classified as active if it prevents the transition to β-turn/β-sheet in 50% or more of the trials.

NAC peptide [3] = target: T1, NAC peptide; test: Electron microscopy (EM) analysis of NAC fiber formation in the fibrillogenesis assay; type: biochemical; settings: for EM Score: amount of fibers compared to NAC alone (100% fibers), 10 frames of a 300-mesh grid
Description: as §1, §2
Analysis by Electron Microscopy: The fibrillogenesis assays performed for CD analysis were also spotted for EM. The electron micrographs are visually examined and a score is assigned as follows. Briefly, 10 representative frames from a 300-mesh grid are analyzed and given a score representing the amount of fibers formed in the sample as compared to a micrograph with NAC alone without a test compound (100% fibers). A score was assigned based on this analysis on a scale from 0% to 100% fibers: (−) indicates an observation of less than about 25% fibers; (+) indicates about 25% fibers; (++) about 50% fibers; (+++) indicates about 75% fibers; and (++++) 100% fibers. […]

Question: With CCCCCCCCCCCCCCCCS(C)(C)CCCS(=O)(=O)O [compound 11] as the compound, how does the “Binding Strength” value (NAC peptide [1]) read?
Answer: ++ (Moderate; when the total binding is between 120% and 70%)

Question: And the “CD Result (NAC conformation observed)” value (NAC peptide [2])?
Answer: Random Coil

Question: And the “Activity (CD)” value (NAC peptide [2])?
Answer: Coil

Question: What about the “Activity: active trials / trials” value (NAC peptide [2]) of the same compound?
Answer: 4/4

Question: O=S(=O)(O)CCCN1CCN(Cc2ccccc2)CC1 [compound 12] was tested. Which “Binding Strength” value (NAC peptide [1]) did it give?
Answer: ++ (Moderate; when the total binding is between 120% and 70%)

Question: What about the “CD Result (NAC conformation observed)” value (NAC peptide [2]) of the same compound?
Answer: β-turn Transition

Question: And the “Activity (CD)” value (NAC peptide [2])?
Answer: No

Question: And the “Activity: active trials / trials” value (NAC peptide [2])?
Answer: ⅓

Question: For O=S(=O)(O)CCCN1CCc2c([nH]c3ccccc23)C1 [compound 13], which “Binding Strength” value (NAC peptide [1]) is on record?
Answer: +++ (Strong; when the total binding is 120% and higher)

Question: What about the “CD Result (NAC conformation observed)” value (NAC peptide [2]) of the same compound?
Answer: Random coil Transition

Question: What about the “Activity (CD)” value (NAC peptide [2]) of the same compound?
Answer: Yes

Question: What about the “Activity: active trials / trials” value (NAC peptide [2]) of the same compound?
Answer: 3/3

Question: How did the “Binding Strength” value (NAC peptide [1]) turn out when CC(=O)C1(c2ccccc2)CCN(CCCS(=O)(=O)O)CC1 [compound 15] was run?
Answer: +++ (Strong; when the total binding is 120% and higher)

Question: And the “CD Result (NAC conformation observed)” value (NAC peptide [2])?
Answer: β-sheet/β- turn Random Coil

Question: And the “Activity (CD)” value (NAC peptide [2])?
Answer: No

Question: What about the “Activity: active trials / trials” value (NAC peptide [2]) of the same compound?
Answer: ¼

Question: Which “Binding Strength” value (NAC peptide [1]) does the source give for CC[N+](CC)(CC)CCCS(=O)(=O)[O-] [compound 16] here?
Answer: Indeterminant

Question: What about the “CD Result (NAC conformation observed)” value (NAC peptide [2]) of the same compound?
Answer: Random Coil

Question: What about the “Activity (CD)” value (NAC peptide [2]) of the same compound?
Answer: Yes

Question: What about the “Activity: active trials / trials” value (NAC peptide [2]) of the same compound?
Answer: 3/3

Question: For CC[N+](CC)(CC)CCCS(=O)(=O)[O-] [drawing 62], which “Activity (EM)” value (NAC peptide [3]) is on record?
Answer: Yes

Question: What about the “EM Score” value (NAC peptide [3]) of the same compound?
Answer: AA+

Question: Which results are given for NCCCCS(=O)(=O)O [drawing 63]?
Answer: Activity (EM) (NAC peptide [3]): Yes; EM Score (NAC peptide [3]): AA+

Question: With O=S(=O)(O)CC(O)CNC1CCCCC1 (stereo not drawn) [drawing 64] as the compound, how does the “Activity (EM)” value (NAC peptide [3]) read?
Answer: No

Question: What about the “EM Score” value (NAC peptide [3]) of the same compound?
Answer: +++ ((+++) indicates about 75% fibers)

Question: What does the source list for O=S(=O)(O)CCC[N+]12CCC(CC1)CC2 [drawing 65]?
Answer: Activity (EM) (NAC peptide [3]): Yes; EM Score (NAC peptide [3]): + ((+) indicates about 25% fibers)

Question: Which “Appearance of NAC fibers by EM” value (NAC peptide [3]; NAC in the presence of heparin) does the source give for heparin [reference compound] here?
Answer: longer and more interwined fibers

Question: What about the “Effect on NAC conformation by CD” value (NAC peptide [2]; NAC incubated in presence of heparin, minimum at 218 nm typical of β-sheet) of the same compound?
Answer: promotes a conformational change
